The data set can be described thus: Visual evaluation of dispersibility of celecoxib powders after reconstitution in 0.01N HCl. It is filed as physicochemical. As to the method:
The unprocessed celecoxib, the blended celecoxib, and the jet milled blended celecoxib were analyzed using visual inspection and by light microscopy (performed on a hemacytometer slide) following reconstitution in 0.01N HCl. FIGS. 5A, 5B, and 5C show the particles of the bulk celecoxib, the blended powder, and the jet-milled blended powder, respectively. The quality of the suspensions are described in Table 2.

On to `Cc1ccc(-c2cc(C(F)(F)F)nn2-c2ccc(S(N)(=O)=O)cc2)cc1` [Celecoxib/no blending or jet milling, celecoxib], for which the “Visual Evaluation of Suspension” value was “Poor suspension containing many”.

(Values after patent US20070148211A1, “PROCESSES FOR MAKING PARTICLE-BASED PHARMACEUTICAL FORMULATIONS FOR ORAL ADMINISTRATION” (Acusphere, Inc., priority 2005, published 2007).)
